The text below walks through data of PMC11587516 (ACS Chemical Neuroscience, 2024).

SMILES strings stand for the structures. Read-outs that look alike come from different tables or passages of the source.

Experiment [1] concerns SH-SY5Y neuroblastoma cells. The note with it: 1 mM MPP+, 24 h. The protocol: The model used mimics certain aspects of neurodegenerative diseases, where GABAergic dysfunction and neuronal death are prominent features. […] The neuroprotection studies were performed to determine the ability of compound 9 to prevent MPP^+ (1-methyl-4-phenylpyridinium) toxicity at a concentration of 1 mM, which was coincubated with compound 9 for 24 h. MPP^+ is a well-established neurotoxin that selectively damages neurons, making it a commonly used agent to model aspects of neurodegenerative conditions in vitro. It induces oxidative stress and mitochondrial dysfunction, leading to cell death. Cell viability was detected by a standard MTS assay.
Neuroprotection studies were performed according to the procedure described previously.[27] In brief, SH-SY5Y CRL-2266 (American Type Culture Collection, Manassas, VG) were seeded in microplate at a concentration of 2.5 × 10^4 cells/well in 100 μL of culture medium and cultured for 24 h at 37 °C and 5% CO2. […] Next, MPP^+ was added at a final concentration of 1 mM and the cells were placed in the incubator. After 24 h of the compound coincubation with MPP^+, the CellTiter 96 AQueous Nonradioactive Cell Proliferation Assay (MTS) was performed. The test was purchased from Promega (Madison, WI). The absorbance was measured using a microplate reader EnSpire (PerkinElmer, Waltham, MA) at 490 nm. All results were shown as mean ± SD. The statistical significances were calculated by GraphPad Prism 6.0 software.

Experiment [2] addresses T1, hGAT3 (Homo sapiens, UniProt P48066).
T1 construct: expressed in transfected cells
T1 sequence (P48066 1-632): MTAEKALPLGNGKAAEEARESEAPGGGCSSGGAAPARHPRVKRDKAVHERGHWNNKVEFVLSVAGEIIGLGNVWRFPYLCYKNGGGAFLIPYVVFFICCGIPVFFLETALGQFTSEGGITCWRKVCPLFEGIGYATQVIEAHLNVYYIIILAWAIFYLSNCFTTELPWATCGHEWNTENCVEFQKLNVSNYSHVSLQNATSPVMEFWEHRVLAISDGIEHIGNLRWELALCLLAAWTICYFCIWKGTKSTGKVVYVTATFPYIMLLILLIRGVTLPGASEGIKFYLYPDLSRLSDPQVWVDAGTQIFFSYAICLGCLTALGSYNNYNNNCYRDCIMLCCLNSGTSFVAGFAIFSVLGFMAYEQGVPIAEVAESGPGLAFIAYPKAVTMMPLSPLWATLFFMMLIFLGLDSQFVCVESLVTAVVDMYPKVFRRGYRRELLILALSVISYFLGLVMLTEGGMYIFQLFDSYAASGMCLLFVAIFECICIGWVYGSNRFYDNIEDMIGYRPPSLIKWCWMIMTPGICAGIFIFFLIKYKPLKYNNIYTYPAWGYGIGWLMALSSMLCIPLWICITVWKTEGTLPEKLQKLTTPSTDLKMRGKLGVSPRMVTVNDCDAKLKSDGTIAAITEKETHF
In words: [3H]GABA uptake assay, CHO cells stably expressing hGAT3. The experiment is classed as cell-based.

Experiment [3] addresses T2, hBGT1 (Homo sapiens, UniProt P48065).
T2 construct: expressed in transfected cells
T2 sequence (P48065 1-614): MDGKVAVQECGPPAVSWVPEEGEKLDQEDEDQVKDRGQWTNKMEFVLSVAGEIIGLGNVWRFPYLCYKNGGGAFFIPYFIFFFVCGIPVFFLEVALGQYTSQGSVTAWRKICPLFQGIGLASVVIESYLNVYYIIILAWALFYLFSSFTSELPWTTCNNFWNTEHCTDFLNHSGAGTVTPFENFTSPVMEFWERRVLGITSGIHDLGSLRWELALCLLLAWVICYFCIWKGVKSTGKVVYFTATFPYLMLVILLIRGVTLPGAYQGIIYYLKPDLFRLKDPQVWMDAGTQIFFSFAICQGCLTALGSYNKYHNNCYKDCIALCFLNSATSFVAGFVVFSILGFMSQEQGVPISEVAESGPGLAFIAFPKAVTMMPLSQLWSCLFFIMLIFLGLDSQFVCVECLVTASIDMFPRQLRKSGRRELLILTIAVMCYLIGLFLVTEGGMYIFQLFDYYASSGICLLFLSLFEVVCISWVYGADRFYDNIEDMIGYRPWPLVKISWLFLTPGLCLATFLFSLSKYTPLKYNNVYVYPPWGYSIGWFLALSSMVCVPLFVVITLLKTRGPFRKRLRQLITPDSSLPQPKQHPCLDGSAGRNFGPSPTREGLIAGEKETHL
The experiment in a line: [3H]GABA uptake assay, CHO cells stably expressing hBGT1. Format: cell-based. The protocol:
All selected compounds were tested for their ability to inhibit human BGT1 (hBGT1) function.
(§1) The CHO cells were placed in 96-well plates (approximately 50,000 cells/well) for about 24 h before the experiment. […] After incubation, cells were washed 3 times with 100 μL/well ice-cold assay buffer, 150 μL/well MicroScint20 (PerkinElmer) was subsequently added before the plate was shaken for at least 1 h. The radioactivity of each well of the plate was measured on a TopCount NXT scintillation counter. […] Data presented are the pooled data of at least three independent experiments with three technical replicates if not stated otherwise in figure legends. Concentration–response curves were fitted by nonlinear regression to the sigmoidal concentration–response model with GraphPad Prism v 9.0.

In experiment [4] the test system is GABAA receptors. In words: GABAA receptor [3H]-muscimol radioligand binding assay, rat cortical membranes. The note with it: rat cortex.
Procedure: A 10 mM stock solution of the tested compound was prepared in DMSO. Serial dilutions of the compound were prepared in 96-well microplates in assay buffers using automated pipetting system epMotion 5070 (Eppendorf). Each compound was tested in 8 concentrations from 10^–3 to 10^–10 M (final concentration). Radioligand binding was performed using tissue rat cortex according to the previous procedure.[22] All assays were carried out in duplicates. 50 μL of working solution of the tested compounds, 50 μL of [^3H]-muscimol (final concentration 2.0 nM), and 150 μL of tissue suspension prepared in assay buffer (50 mM Tris-HCl, pH 7.4) were transferred to polypropylene 96-well microplate using 96-well pipetting station Rainin Liquidator (Mettler-Toledo). […] The microplate was covered with sealing tape, mixed, and incubated for 15 min at 4 °C. The reaction was terminated by rapid filtration through GF/B filter mate. Ten rapid washes with 200 μL of 50 mM Tris buffer (4 °C, pH 7.4) were performed using 96-well FilterMate harvester (PerkinElmer). The filter mates were dried at 37 °C in forced air fan incubator and then solid scintillator MeltiLex was melted on filter mates at 90 °C for 4 min. The radioactivity on the filter was measured in MicroBeta TriLux 1450 scintillation counter (PerkinElmer). […]
In experiment [5] the target is T3, hBGT1 wt (Homo sapiens, UniProt P48065).
T3 construct: expressed in transfected cells; host or cells: tsA201 cells (transformed HEK293), transient expression
T3 sequence (P48065 1-614): T2 sequence (P48065 1-614)
The experiment in a line: [3H]GABA uptake assay, wild type hBGT1 transiently expressed in tsA201 cells. Format: cell-based. How it is done: To validate the molecular modeling, particularly the crucial interactions with the Glu52 and Gln299 residues, the activity of compound 9 was tested on the following hBGT1 mutants: E52A, E52Y, Q299L, and the double mutant E52A+Q299L (Figure 5 and Table 1).[14]
as §1
The tsA201 cell line (a transformed HEK293 cell line) has been described previously and was cultured accordingly.[20] The tsA201 cells used for transient expression of hBGT1 mutants were transfected with DNA constructs (8 μg per 10 cm plate) using 40 μL of PolyFect transfection reagent according to the manufacturer’s protocol (Qiagen). […]

Experiment [6] has as its target T4, hGAT1 (Homo sapiens, UniProt P30531).
T4 construct: expressed in transfected cells
In words: [3H]GABA uptake assay, CHO cells stably expressing hGAT1. Format: cell-based.

T4 sequence (P30531 whole entry): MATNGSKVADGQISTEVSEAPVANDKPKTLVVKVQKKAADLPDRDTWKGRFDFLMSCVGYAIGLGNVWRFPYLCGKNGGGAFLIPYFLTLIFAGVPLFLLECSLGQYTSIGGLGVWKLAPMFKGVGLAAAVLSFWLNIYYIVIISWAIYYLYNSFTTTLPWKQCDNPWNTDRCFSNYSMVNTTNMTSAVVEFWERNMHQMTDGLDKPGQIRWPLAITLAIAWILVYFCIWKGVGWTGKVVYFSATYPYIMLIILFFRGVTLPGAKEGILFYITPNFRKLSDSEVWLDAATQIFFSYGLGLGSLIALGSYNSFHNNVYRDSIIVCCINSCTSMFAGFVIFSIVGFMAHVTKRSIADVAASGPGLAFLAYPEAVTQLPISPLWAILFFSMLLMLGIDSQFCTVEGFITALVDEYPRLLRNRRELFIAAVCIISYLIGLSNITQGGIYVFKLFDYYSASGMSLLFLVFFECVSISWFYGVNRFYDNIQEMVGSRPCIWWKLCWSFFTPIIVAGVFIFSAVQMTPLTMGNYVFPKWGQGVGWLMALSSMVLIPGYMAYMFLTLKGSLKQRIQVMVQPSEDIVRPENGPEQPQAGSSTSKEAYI

As for `NC12CC(C(=O)O)(C1)C2` [Compound 9], the figures for the “cell viability compared to MPP+ alone” value in experiment [1] (10 μM) and in experiment [1] (50 μM) were “increased cell viability” and “significantly increased cell viability”, respectively. Also, the IC50 is 58.3 µM in experiment [2], 13.9 µM in experiment [3], 33.9 µM in experiment [5] and above 100 µM in experiment [6]. The inhibition at 100 µM in experiment [2] (CHO, read-out: inhibition of GABA uptake) was around 73%; in experiment [3] (CHO, read-out: inhibition of [3H]GABA uptake), 81%. For the same compound, the “preference for hBGT1 over hGAT3” value in experiment [3] (ratio of IC50 values) is on record as “over 4 fold”. Moreover, in experiment [4] (100 μM), the “displacement of [3H]-muscimol” value is given as 4%. For the same compound, the “Ki ± SEM” value in experiment [4] ([3H]-muscimol 2.0 nM) is on record as “no affinity ^a”. Also, the “inhibitory effect on [3H]GABA uptake” value in experiment [6] (100 μM, CHO cells) was “no inhibitory effect”.

As usually defined, the IC50 is the concentration that inhibits the measured activity by half. A low value points to higher potency. For orientation: inhibition means how much of the control response was suppressed.
